Measurements published in US9012635B2, “Pyridone amides and analogs exhibiting anti-cancer and anti-proliferative activities” (Deciphera Pharmaceuticals, LLC, priority 2013, dated 2015).
Where a name gives a salt, the structure may show the parent alone.

Key:
[1] = target: KDR kinase (Seq ID No. 3) (Homo sapiens, UniProt P35968, DEL940-989/E990V); assay: KDR kinase assay (assays K1, K2, K3); type: biochemical; conditions: enzymatic assay; variant K1, K2 or K3 not given
Description: The activity of KDR kinase was determined by following the production of ADP from the kinase reaction through coupling with the pyruvate kinase/lactate dehydrogenase system (e.g., Schindler et al. Science 2000, 289, pp. 1938-1942). In this assay, the oxidation of NADH (thus the decrease at A340 nm) was continuously monitored spectrophotometrically. The reaction mixture (100 μl) contained KDR (Seq ID No. 3, 1.5 nM to 7.1 nM, nominal concentration), polyE4Y (1 mg/mL), pyruvate kinase (3.5 units), lactate dehydrogenase (5.5 units), phosphoenolpyruvate (1 mM), and NADH (0.28 mM) in 60 mM Tris buffer containing 0.13% octyl-glucoside, 13 mM MgCl2, 6.8 mM DTT, test compound, and 3.5% DMSO at pH 7.5. The reaction was initiated by adding ATP (0.2 mM, final concentration). The absorption at 340 nm was continuously monitored for 3 h at 30° C. on a Polarstar Optima plate reader (BMG) or instrument of similar capacity. The reaction rate was calculated using the 1 h to 2 h time frame. Percent inhibition was obtained by comparison of reaction rate with that of a control (i.e., with no test compound). IC50 values were calculated from a series of percent inhibition values determined at a range of inhibitor concentrations using software routines as implemented in the GraphPad Prism software package.
KDR kinase assay K2 is the same as for assay K1 except that (1) a nominal concentration of 2.1 nM of enzyme was employed (2) the reaction was pre-incubated with test compound at 30° C. for 2 h prior to initiation with ATP and (3) 1.0 mM ATP (final concentration) was used to initiate the reaction.
KDR kinase assay K3 is the same as for assay K1 except that (1) a nominal concentration of 1.1 nM of enzyme was employed, (2) the buffer components per 100 μl reaction mixture were as follows: 75 mM Tris buffer containing 0.066% octyl-glucoside, 17 mM MgCl2, and 1% DMSO at pH 7.5, (3) the final concentration of DTT was 0.66 mM, (4) the reaction was pre-incubated with test compound at 30° C. for 1 h prior to initiation with ATP, and (5) 1.0 mM ATP (final concentration) was used to initiate the reaction.

[2] = target: T1, Phospho-MET in EBC-1 cells (Homo sapiens, UniProt P08581); assay: EBC-1 phospho-MET ELISA; type: cell-based; conditions: 6 h compound, 40 ng/mL HGF 10 min, read-out: EBC1 pMET
T1 construct: endogenous in cells; host or cells: EBC-1 (JCRB0820)
T1 sequence (P08581 25-1390): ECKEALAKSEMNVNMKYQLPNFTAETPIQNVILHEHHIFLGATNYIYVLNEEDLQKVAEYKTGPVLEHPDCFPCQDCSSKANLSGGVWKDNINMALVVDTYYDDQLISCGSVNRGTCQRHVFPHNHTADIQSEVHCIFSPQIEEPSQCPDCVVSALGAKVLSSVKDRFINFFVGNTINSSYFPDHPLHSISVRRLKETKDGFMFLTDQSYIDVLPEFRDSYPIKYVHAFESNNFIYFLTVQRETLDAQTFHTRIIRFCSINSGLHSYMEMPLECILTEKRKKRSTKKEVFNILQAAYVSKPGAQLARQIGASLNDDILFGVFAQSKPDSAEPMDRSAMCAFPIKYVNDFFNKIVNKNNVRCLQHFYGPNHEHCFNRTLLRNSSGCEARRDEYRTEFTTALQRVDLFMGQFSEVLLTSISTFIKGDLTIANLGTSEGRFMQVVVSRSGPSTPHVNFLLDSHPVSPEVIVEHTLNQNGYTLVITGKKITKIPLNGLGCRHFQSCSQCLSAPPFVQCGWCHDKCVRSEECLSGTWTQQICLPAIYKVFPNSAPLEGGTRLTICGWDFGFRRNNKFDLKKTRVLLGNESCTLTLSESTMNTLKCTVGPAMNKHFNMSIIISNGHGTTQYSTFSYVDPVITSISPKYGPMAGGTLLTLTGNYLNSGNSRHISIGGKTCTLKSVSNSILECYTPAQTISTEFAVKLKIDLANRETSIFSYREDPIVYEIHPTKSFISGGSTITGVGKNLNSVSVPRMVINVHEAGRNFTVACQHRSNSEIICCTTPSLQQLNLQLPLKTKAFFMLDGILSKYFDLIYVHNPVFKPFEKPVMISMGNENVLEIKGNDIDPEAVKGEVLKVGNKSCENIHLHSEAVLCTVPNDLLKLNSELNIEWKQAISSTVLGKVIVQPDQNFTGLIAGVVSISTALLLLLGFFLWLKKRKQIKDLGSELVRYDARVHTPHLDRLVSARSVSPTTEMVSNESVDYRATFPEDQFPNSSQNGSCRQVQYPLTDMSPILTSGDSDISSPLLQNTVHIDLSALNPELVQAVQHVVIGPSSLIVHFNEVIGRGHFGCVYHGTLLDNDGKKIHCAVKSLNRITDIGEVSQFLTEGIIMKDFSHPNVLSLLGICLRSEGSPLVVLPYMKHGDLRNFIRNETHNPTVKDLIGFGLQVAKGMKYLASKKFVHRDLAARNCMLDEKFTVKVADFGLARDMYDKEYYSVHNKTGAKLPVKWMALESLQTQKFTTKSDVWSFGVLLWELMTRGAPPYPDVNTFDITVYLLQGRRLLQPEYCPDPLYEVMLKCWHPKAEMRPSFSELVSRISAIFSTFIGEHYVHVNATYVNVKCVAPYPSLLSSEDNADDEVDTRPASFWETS
Description: (§1) EBC-1 cells (catalog #JCRB0820) were obtained from the Japan Health Science Research Resources Bank, Osaka, Japan. Briefly, cells were grown in DMEM supplemented with 10% characterized fetal bovine serum (Invitrogen, Carlsbad, Calif.) at 37° C., 5% CO2, 95% humidity. Cells were allowed to expand until reaching 70-95% confluency at which point they were subcultured or harvested for assay use.
Fifteen thousand cells in DMEM supplemented with 0.5% characterized fetal bovine serum (FBS; Invitrogen, Carlsbad, Calif.) were added per well in a 96-well black clear bottom plate (Corning, Corning, N.Y.). Cells were then incubated overnight at 37 degrees Celsius, 5% CO2, 95% humidity. A serial dilution of test compound was dispensed into another 96-well black clear bottom plate (Corning, Corning, N.Y.) containing DMEM supplemented with 0.5% FBS. Diluted compound was then added to plates containing cells and incubated for 6 hours at 37 degrees Celsius, 5% CO2, 95% humidity. Cells were stimulated with 40 ng/mL HGF (R&D Systems, Minneapolis, Minn.) for 10 minutes, and then lysed. Phospho-MET in cell lysates was detected using the DuoSet IC Human Phospho-HGF R/c-MET ELISA (R&D Systems, Minneapolis, Minn.). Data was analyzed using Prism software (Graphpad, San Diego, Calif.) to calculate IC50 values.

[3] = target: T2, Phospho-MET in MKN-45 cells (Homo sapiens, UniProt P08581); assay: MKN-45 phospho-MET ELISA; type: cell-based; conditions: 6 h compound, 40 ng/mL HGF 10 min, read-out: MKN-45 pMET
T2 construct: endogenous in cells; host or cells: MKN-45 (JCRB0254)
T2 sequence (P08581 25-1390): as above
Description: as §1, with “MKN-45” for “EBC-1”, “#JCRB0254)” for “#JCRB0820)”, “RPMI 1640 media” for “DMEM”
Twenty-five thousand cells in RPMI-1640 supplemented with 10% characterized fetal bovine serum (Invitrogen, Carlsbad, Calif.) were added per well in a 96-well black clear bottom plate (Corning, Corning, N.Y.). Cells were then incubated overnight at 37 degrees Celsius, 5% CO2, 95% humidity. Media was then aspirated and cells were washed with PBS. A serial dilution of test compound was dispensed into another 96-well black clear bottom plate (Corning, Corning, N.Y.) containing serum-free RPMI-1640. Compound was added to plates containing cells and incubated for 6 hours at 37 degrees Celsius, 5% CO2, 95% humidity. Cells were stimulated with 40 ng/mL HGF (R&D Systems, Minneapolis, Minn.) for 10 minutes, and then lysed. Phospho-MET in cell lysates was detected using the DuoSet IC Human Phospho-HGF R/c-MET ELISA (R&D Systems, Minneapolis, Minn.). Data was analyzed using Prism software (Graphpad, San Diego, Calif.) to calculate IC50 values.

KDR kinase (Seq ID No. 3), sequence (P35968 with tags, fused parts or gaps DEL940-989/E990V): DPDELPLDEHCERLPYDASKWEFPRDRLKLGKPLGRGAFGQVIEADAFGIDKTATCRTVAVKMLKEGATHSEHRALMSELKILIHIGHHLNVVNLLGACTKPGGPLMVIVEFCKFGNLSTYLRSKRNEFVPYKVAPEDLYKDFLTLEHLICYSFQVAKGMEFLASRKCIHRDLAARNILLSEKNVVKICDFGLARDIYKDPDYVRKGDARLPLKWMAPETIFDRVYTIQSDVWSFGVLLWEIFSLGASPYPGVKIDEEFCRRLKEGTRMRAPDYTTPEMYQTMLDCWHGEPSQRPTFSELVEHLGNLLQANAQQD

Compound | IC50 [1] [nM] | IC50 [2] [nM] | IC50 [3] [nM]
Cn1cc(-c2cc(Oc3cc(F)c(NC(=O)c4cccn(-c5ccc(F)cc5)c4=O)cc3F)ccn2)cn1 [Example 1, N-(2,5-difluoro-4-((2-(1-methyl-1H-pyrazol-4-yl)pyridin-4-yl)oxy)phenyl)-1-(4-fluorophenyl)-2-oxo-1,2-dihydropyridine-3-carboxamide] | > 1000 | ≤ 100 | ≤ 100
CCOc1ccn(-c2ccc(F)cc2)c(=O)c1C(=O)Nc1cc(F)c(Oc2ccnc(-c3cnn(C)c3)c2)cc1F [Example 2, N-(2,5-difluoro-4-(2-(1-methyl-1H-pyrazol-4-yl)pyridin-4-yloxy)phenyl)-4-ethoxy-1-(4-fluorophenyl)-2-oxo-1,2-dihydropyridine-3-carboxamide] | > 1000 | ≤ 100 | ≤ 100
O=C(Nc1cc(F)c(Oc2ccnc(-c3cnn(CCO)c3)c2)cc1F)c1cccn(-c2ccc(F)cc2)c1=O [Example 3, N-(2,5-difluoro-4-((2-(1-(2-hydroxyethyl)-1H-pyrazol-4-yl)pyridin-4-yl)oxy)phenyl)-1-(4-fluorophenyl)-2-oxo-1,2-dihydropyridine-3-carboxamide hydrochloride] | > 1000 | ≤ 100 | ≤ 100
CCNc1ccn(-c2ccc(F)cc2)c(=O)c1C(=O)Nc1cc(F)c(Oc2ccnc(-c3cnn(C)c3)c2)cc1F [Example 5, N-(2,5-difluoro-4-((2-(1-methyl-1H-pyrazol-4-yl)pyridin-4-yl)oxy)phenyl)-4-(ethylamino)-1-(4-fluorophenyl)-2-oxo-1,2-dihydropyridine-3-carboxamide] | > 1000 | – | –
